Measurements: patent US20090069324A1, “CHEMICAL INHIBITORS OF BFL-1 AND RELATED METHODS” (The Burnham Institute, priority 2007, published 2009)
Several values for one entry are separate records, joined by “and”; a condition that tells them apart may be missing. Identical values can stand only once.

Columns and labels:
Bfl-1 [1] = molecular target: T1, Bfl-1 (Homo sapiens, UniProt Q16548); test: Bfl-1 TR-FRET assay (FITC-Bid, Tb-anti-GST antibody); assay type: binding
T1 construct: lacking their C-terminal transmembrane domains (approximately last 20 amino-acids); made in house; host or cells: XL-1 Blue cells (E. coli), pGEX 4T-1
T1 sequence (Q16548 1-155 limits assumed): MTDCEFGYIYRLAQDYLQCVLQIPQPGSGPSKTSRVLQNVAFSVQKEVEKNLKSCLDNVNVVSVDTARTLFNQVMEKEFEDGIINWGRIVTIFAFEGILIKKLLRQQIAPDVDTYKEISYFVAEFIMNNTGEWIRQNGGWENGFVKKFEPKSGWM
Experimental: TR-FRET assay. For confirmation of FPA results, a TR-FRET assay utilizing terbium- (Tb-) labeled anti-GST antibody (Th-Ab) was developed. […] The reaction mixture was preincubated for 1 h, and TR-fluorescence (TRF) was measured on an M5 plate reader (Molecular Devices) using excitation at 340 nm and emission at […]. The measurements were averaged from 5 readings during 1 ms after an initial delay 0.1 ms. TR-FRET signal was calculated as the ratio of TR-Fluorescence at 520 nm to TR-Fluorescence at […].
For Bfl-1 TR-FRET assays, Bfl-1 protein and FITC-Bid peptide (FITC-Ahx-[…]) (SEQ ID NO: 1) were utilized. Terbium-anti-GST antibody (Tb-anti-GST Ab) was obtained from Invitrogen (San Diego Calif.). The assay buffer contained 25 mM Bis-Tris, pH 7.0, 1 mM TCEP, and 0.005% Tween 20. The Tb-Ab buffer contained 2.5 nM Tb-anti-GST antibody in assay buffer. The Bfl-1/Th-Ab working solution contained 5 nM Bfl-1 in Th-Ab assay buffer. The solution was prepared fresh and kept on ice prior to use. The FITC-Bid working solution contained 5.6 nM FITC-Bid in assay buffer.
For the Bfl-1 TR-FRET dose-response screening protocol, dose-response curves contained 10 concentrations of compounds obtained using 2-fold serial dilution. Compounds were serially diluted in 100% DMSO, and then diluted with water to 10% final DMSO concentration. A 4 μl aliquot of compounds in 10% DMSO was transferred into columns 3-22 of Greiner 384-well white small-volume plates. Columns 1-2 and 23-24 contained 4 μL of 10% DMSO.
Columns 1-2 were reserved for positive controls, and 8 μL of Th-Ab buffer was added using a WellMate bulk dispenser (Matrix). An aliquot of 8 μL of Bfl-1/Th-Ab working solution was added to columns 3-24 of Greiner 384 well white plates using a WellMate bulk dispenser (Matrix). Columns 23-24 represented negative control wells. Plates were incubated for 1 h at 4° C. An 8 μL aliquot of freshly prepared FITC-Bid working solution was added to the whole plate using WellMate bulk dispenser (Matrix). Plates were incubated for 4 h at room temperature protected from direct light. Fluorescence was measured on the M5 plate reader (excitation: 340 nm, emission: 490 and 520 nm, cutoff: 475 and 515 nm, respectively) in Time Resolved (TR) mode with signal integrated for 1 ms after initial delay of 0.1 ms. TR-FRET signal was calculated as the ratio of TR-Fluorescence at 520 nm to TR-Fluorescence at 490 nm. Data analysis was performed using a sigmoidal dose-response equation through non-linear regression.

Bfl-1 [2] = molecular target: T1, Bfl-1; test: Bfl-1 fluorescence polarization assay (FPA/FP), competition with FITC-Bid BH3 peptide; assay type: binding
Experimental: Fluorescence polarization assays (FPA). To determine the binding affinity of anti-apoptotic Bcl-2 polypeptides to FITC-conjugated Bid BH3 peptide, fluorescence polarization assays (FPAs) were performed according to published procedures (Zhai et al., Biochem. J. 376:229-236 (2003)). […] Fluorescence polarization was measured after 10 min using an Analyst™ AD Assay Detection System (LJL Biosystem, Sunnyvale, Calif.) in phosphate-buffered saline (PBS) (pH 7.4). The IC50 determinations were performed using GraphPad Prism software (GraphPad, Inc., San Diego, Calif.).
Competition assays. Using the same procedure outlined above, 100 nM of GST-Bfl-1 protein were incubated with the compounds at 50 μM concentration for 30 min. Then, 5 nM of FITC-Bid BH3 peptide was added. Fluorescence polarization was measured after 10 min. […]

[3] = Tables 3-5, read-out: Bfl-1 TR FRET IC50
[4] = Tables 3-5, read-out: Bfl-1 FP IC50
[5] = Tables 7-8, Avg where the cell lists several determinations, read-out: Bfl-1 TR-FRET IC50
[6] = Tables 7-8, Avg where the cell lists several determinations, read-out: Bfl-1 FPA IC50
[7] = Tables 7-8, Avg where the cell lists several determinations

Row | Structure (SMILES) | IC50 (Bfl-1 [1]; [3]) [µM] | IC50 (Bfl-1 [2]; [4]) [µM] | IC50 (Bfl-1 [1]; [5]) [µM] | IC50 (Bfl-1 [2]; [6]) [µM] | also measured
1 | O=C1C(Cl)=C(Nc2ccccc2)C(=O)N1c1ccc(Cl)c(Cl)c1 [MLS-0067128] | – | – | – | – | Bfl-1 TR FRET IC50 (uM) (Bfl-1 [1]; Tables 3-5): no fit; Bfl-1 FP IC50 (uM) (Bfl-1 [2]; Tables 3-5): no fit
2 | O=C1C(Cl)=C(N2CCN(CCO)CC2)C(=O)N1c1ccc(Cl)c(Cl)c1 [MLS-0090874] | 0.59 | 0.56 | – | – | –
3 | COCCNC1=C(Cl)C(=O)N(c2ccc(Cl)c(Cl)c2)C1=O [MLS-0067127] | 4.96 | 12.6 | – | – | –
4 | CCOC(=O)CCS(=O)(=O)c1nc(-c2ccccc2)cc(C(F)(F)F)n1 [Compound 7914223] | – | – | 4 | 7.9 | –
5 | CN1CCN(C2=CC(=O)N(c3ccc(Cl)cc3)C2=O)CC1 [MLS-0066987] | – | – | – | – | Bfl-1 TR-FRET assay, activity in words (Bfl-1 [1]; Bfl-1/FITC-Bid): inactive; Bfl-1 FP assay, activity in words (Bfl-1 [2]; Bfl-1/FITC-Bid): inactive
6 | CN1CCN(C2=C(Cl)C(=O)N(c3ccc(Cl)cc3Cl)C2=O)CC1 [MLS-0090829] | 1.36 | 2.62 | – | – | –
7 | CCOC(=O)CS(=O)(=O)c1nc(-c2ccccc2)cc(C(F)(F)F)n1 [Compound 7663066] | – | – | 2.91 | 4.64 | IC50 (Bfl-1 [1]; Tables 7-8, single values listed before the Avg, read-out: Bfl-1 TR-FRET IC50 (uM), individual determinations): 1.18 µM and 4.63 µM; IC50 (Bfl-1 [2]; Tables 7-8, single values listed before the Avg, read-out: Bfl-1 FPA IC50 (uM), individual determinations): 2.63 µM and 2.4 µM and 5.42 µM and 8.1 µM
8 | COc1ccccc1-c1cc(C(F)(F)F)nc(S(=O)(=O)CCCC(=O)N2CCOCC2)n1 [Compound 7990929] | – | – | 19.1 | 21.5 | –
9 | CN1CCN(C2=C(Cl)C(=O)N(c3c(Cl)cccc3Cl)C2=O)CC1 [MLS-0090830] | 3.72 | 13.7 | – | – | –
10 | COc1ccccc1-c1cc(C(F)(F)F)nc(S(=O)(=O)CCCC(=O)NC(C)C)n1 [Compound C071-0355] | – | – | – | – | Bfl-1 TR-FRET IC50 (uM) (Bfl-1 [1]; [7]): nodisplacement; Bfl-1 FPA IC50 (uM) (Bfl-1 [2]; [7]): nodisplacement
11 | CC(C)c1nnc(NC(=O)CCS(=O)(=O)c2nc(-c3cccs3)cc(C(F)(F)F)n2)s1 [ASN05990586] | – | – | 5.3 | 11.3 | –
12 | CS(=O)(=O)c1nc(-c2ccco2)cc(C(F)(F)F)n1 [Compound C164-0006] | – | – | 6 | 7.2 | –
13 | O=C1C(Cl)=C(N2CCN(Cc3ccc4c(c3)OCO4)CC2)C(=O)N1c1ccc(Cl)c(Cl)c1 [MLS-0090865] | 2.14 | 4.07 | – | – | –
14 | Cc1ccc(Cl)c(N2C(=O)C(Cl)=C(N3CCN(C)CC3)C2=O)c1Cl [MLS-0090832] | 11.1 | 23.9 | – | – | –
15 | O=C1C(Cl)=C(N2CCN(C/C=C/c3ccccc3)CC2)C(=O)N1c1ccc(Cl)c(Cl)c1 [MLS-0090859] | 0.73 | 0.59 | – | – | –
16 | COc1ccccc1-c1cc(C(F)(F)F)nc(S(=O)(=O)CCCC(=O)N2CCCCC2C)n1 (stereo not shown) [Compound C071-0367] | – | – | 12.8 | 14.7 | –
17 | O=C1C(Cl)=C(N2CCN(Cc3ccccc3)CC2)C(=O)N1c1ccc(Cl)c(Cl)c1 [MLS-0090866] | 1.64 | 1.62 | – | – | –
18 | COCC(C)NC(=O)CCS(=O)(=O)c1nc(-c2ccc(OC)cc2)cc(C(F)(F)F)n1 (stereo not shown) [BAS03664947] | – | – | 19.6 | 20.6 | –
19 | C[C@@H]1CN(C2=C(Cl)C(=O)N(c3ccc(Cl)c(Cl)c3)C2=O)CCN1 [MLS-0090857] | 1.03 | 1.16 | – | – | –
